Source: patent publication US20230159496A1, “COMPOUNDS AND METHODS FOR MODULATING SPLICING” (REMIX THERAPEUTICS INC., priority 2020, published 2023)
Where a name gives a salt, the structure may show the parent alone. Read-outs that look alike come from different tables or passages of the source.

Key:
Format in all cases: cell-based
[1] = test system: Target C CJ mRNA; assay: Gene panel canonical junction qPCR assay, Target C; settings: decrease in CJ mRNA levels, gene panel; read-out: Target C IC50
Summary of the method: (§1)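 A673 or K562 cells were treated for 24 h at 37 °C with an 11-point 3-fold dilution, top dose 10 uM, DMSO ≤0.25%. Canonical junction mRNA in lysates was quantified by one-step RT-qPCR and normalized to GAPDH, GUSB or PPIA.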

[2] = test system: SMN2 CJ mRNA; assay: Gene panel canonical junction qPCR assay, SMN2; settings: decrease in CJ mRNA levels, gene panel; read-out: SMN2 IC50
Summary of the method: as §1

[3] = test system: HTT mRNA; assay: Splicing assay (RT-qPCR) monitoring HTT canonical junction (CJ) and alternative junction (AJ) mRNA isoforms; settings: A673 or K562 cells, 24 h treatment, top dose 10 uM
Summary of the method: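 A673 or K562 cells treated 24 h at 37 °C with an 11-point 3-fold dilution (top 10 uM final, DMSO ≤0.25%). Lysates assayed by one-step RT-qPCR for HTT CJ and AJ isoforms, normalized to GAPDH, GUSB (K562) or PPIA (A673).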

[4] = test system: HTT CJ mRNA; assay: Gene panel canonical junction qPCR assay, HTT; settings: decrease in CJ mRNA levels, gene panel; read-out: HTT IC50
Summary of the method: as §1

[5] = decrease in CJ mRNA (50% response), read-out: HTT CJ AC50
[6] = increase in AJ mRNA (50% response), read-out: HTT AJ AC50

Row | Compound | IC50 [1] [µM] | IC50 [2] [µM] | AC50 [3, 5] [µM] | AC50 [3, 6] [µM] | IC50 [4] [µM]
1 | Cn1cc2cc(-c3ccc4c(=O)n(C5CCNCC5)cnc4c3)cc(F)c2n1 [Compound 206, 7-(7-fluoro-2-methyl-2H-indazol-5-yl)-3-(piperidin-4-yl)quinazolin-4(3H)-one] | 0.1 to 1 | < 0.1 | 0.1 to 1 | 0.1 to 1 | 0.1 to 1
2 | Cc1cn2nc(-c3ccc4c(c3)CCN(C3CCNCC3)C4=O)nc2c(C)n1 [Compound 222] | 1 to 10 | 0.1 to 1 | 1 to 10 | 1 to 10 | 1 to 10
3 | Cc1nc2c(F)cc(-c3ccc4c(c3)CCN(C3CCNCC3)C4=O)cc2o1 [Compound 215] | 1 to 10 | < 0.1 | 1 to 10 | 1 to 10 | 1 to 10
4 | Cc1cn2nc(-c3ccc4c(=O)n(C5CCCNCC5)ncc4c3)cc(C)c2n1 (stereo not shown) [Compound 283, 2-(azepan-4-yl)-6-{2,8-dimethylimidazo[1,2-b]pyridazin-6-yl}phthalazin-1-one] | 0.1 to 1 | < 0.1 | 0.1 to 1 | 0.1 to 1 | 0.1 to 1
5 | Cc1cn2cc(-n3cnc4cc(N5CCN(C)CC5)ccc4c3=O)cc(F)c2n1 [Compound 229, 3-(8-fluoro-2-methylimidazo[1,2-a]pyridin-6-yl)-7-(4-methylpiperazin-1-yl)quinazolin-4(3H)-one] | > 10 | > 10 | > 10 | > 10 | > 10
6 | Cc1cn2cc(-c3ccc4c(=O)n(C5CCNCC5)ncc4c3)cc(C)c2n1 [Compound 257] | 1 to 10 | < 0.1 | 0.1 to 1 | 0.1 to 1 | 0.1 to 1
7 | Cc1cn2cc(-n3cnc4cc(N5CCNCC5)ccc4c3=O)cc(F)c2n1 [Compound 228, 3-(8-fluoro-2-methylimidazo[1,2-a]pyridin-6-yl)-7-(piperazin-1-yl)quinazolin-4(3H)-one] | 0.1 to 1 | 0.1 to 1 | 0.1 to 1 | 0.1 to 1 | 0.1 to 1
8 | Cc1nc2c(F)cc(-c3ccc4c(=O)n(C5CCN(C)CC5)cnc4c3)cc2o1 [Compound 300] | 1 to 10 | < 0.1 | 0.1 to 1 | 1 to 10 | 0.1 to 1
9 | Cn1cc2ccc(-c3ccc4c(=O)n(C5CCNCC5)ncc4c3)cc2n1 [Compound 263] | > 10 | > 10 | > 10 | > 10 | > 10
10 | Cc1nc2c(F)cc(-c3ccc4c(=O)n(C5CCN(C)CC5)cnc4c3)cc2s1 [Compound 301] | 1 to 10 | 1 to 10 | 1 to 10 | 1 to 10 | 1 to 10
11 | Cc1cn2nc(-c3ccc4c(c3)CCN([C@@H]3CCN[C@H](C)C3)C4=O)cc(C)c2n1 [Compound 281] | 1 to 10 | 0.1 to 1 | 1 to 10 | 1 to 10 | 1 to 10
12 | Cc1cc(-c2cc(F)c3c(=O)n(C4CCN(C)CC4)cnc3c2)cc2cn(C)nc12 [Compound 233, 7-(2,7-dimethyl-2H-indazol-5-yl)-5-fluoro-3-(1-methylpiperidin-4-yl)quinazolin-4(3H)-one] | 1 to 10 | < 0.1 | 0.1 to 1 | 0.1 to 1 | 0.1 to 1
13 | CC[C@@H]1C[C@H](n2ncc3cc(-c4cc(C)c5nc(C)cn5n4)ccc3c2=O)CCN1 [Compound 304, 6-{2,8-dimethylimidazo[1,2-b]pyridazin-6-yl}-2-[(2R,4R)-2-ethylpiperidin-4-yl]phthalazin-1-one] | 1 to 10 | < 0.1 | 1 to 10 | 1 to 10 | 0.1 to 1
14 | Cc1cc(-c2cc(F)c3c(=O)n(C4CCNCC4)cnc3c2)cc2cn(C)nc12 [Compound 232] | 0.1 to 1 | < 0.1 | < 0.1 | < 0.1 | < 0.1
15 | Cc1cc(-c2ccc3c(c2)CCN(C2CCNCC2)C3=O)cc2cn(C)nc12 [Compound 219] | 1 to 10 | < 0.1 | 1 to 10 | 1 to 10 | 1 to 10
16 | Cc1cn2nc(-c3ccc4c(=O)n([C@H]5CCN(C)[C@H](C)C5)ncc4c3)cc(C)c2n1 [Compound 278] | 0.1 to 1 | < 0.1 | < 0.1 | < 0.1 | < 0.1
17 | CN(c1ccc2c(=O)n(-c3ccc4nn(C)cc4c3)cnc2c1)C1CCNCC1 [Compound 180, 7-(methyl(piperidin-4-yl)amino)-3-(2-methyl-2H-indazol-5-yl)quinazolin-4(3H)-one, hydrochloride] | 1 to 10 | > 10 | > 10 | > 10 | > 10
18 | CN1CCC(n2cnc3cc(-c4cc(F)c5nn(C)cc5c4)ccc3c2=O)CC1 [Compound 209, 7-(7-fluoro-2-methyl-2H-indazol-5-yl)-3-(1-methylpiperidin-4-yl)quinazolin-4(3H)-one] | 1 to 10 | < 0.1 | 1 to 10 | 0.1 to 1 | 1 to 10
19 | Cc1cn2cc(-c3ccc4c(=O)n(C5CCNCC5)cnc4c3F)cc(F)c2n1 [Compound 210, 8-fluoro-7-(8-fluoro-2-methylimidazo[1,2-a]pyridin-6-yl)-3-(piperidin-4-yl)quinazolin-4(3H)-one] | 1 to 10 | 0.1 to 1 | 1 to 10 | 1 to 10 | 1 to 10
20 | Cn1cc2ccc(-n3cnc4cc(NC5CCNCC5)ccc4c3=O)cc2n1 [Compound 204, 3-(2-methyl-2H-indazol-6-yl)-7-(piperidin-4-ylamino)quinazolin-4(3H)-one] | > 10 | > 10 | > 10 | > 10 | > 10
21 | Cn1cc2cc(-n3cnc4cc(C5CCNCC5)ccc4c3=O)ccc2n1 [Compound 172, 3-(2-methyl-2H-indazol-5-yl)-7-(piperidin-4-yl)quinazolin-4(3H)-one] | > 10 | > 10 | > 10 | > 10 | > 10
22 | Cc1nc2c(F)cc(-c3ccc4c(c3)CCN(C3CCNCC3)C4=O)cc2s1 [Compound 226] | > 10 | 0.1 to 1 | > 10 | > 10 | > 10
23 | Cc1cn2cc(-c3ccc4c(c3)CCN(C3CCNCC3)C4=O)cc(C(F)(F)F)c2n1 [Compound 252, 6-[2-methyl-8-(trifluoromethyl)imidazo[1,2-a]pyridin-6-yl]-2-(piperidin-4-yl)-3,4-dihydroisoquinolin-1-one] | > 10 | 0.1 to 1 | > 10 | > 10 | > 10
24 | Cc1cn2nc(-c3ccc4c(=O)n(C5CCNCC5)cnc4c3)cc(C)c2n1 [Compound 181] | 0.1 to 1 | < 0.1 | 0.1 to 1 | 0.1 to 1 | 0.1 to 1
25 | Cc1cc(-c2ccc3c(=O)n(N4CCN(C)CC4)cnc3c2)cc2cn(C)nc12 [Compound 175, 7-(2,7-dimethyl-2H-indazol-5-yl)-3-(4-methylpiperazin-1-yl)quinazolin-4(3H)-one] | > 10 | 1 to 10 | > 10 | 1 to 10 | 1 to 10
26 | Cc1cn2cc(-c3ccc4c(=O)n(C5CCNCC5)ncc4c3)c(C)cc2n1 [Compound 254] | 1 to 10 | 1 to 10 | 1 to 10 | 1 to 10 | 1 to 10
